Assay results taken from US20250332173A1, “COMPOUNDS AND METHODS FOR MODULATING NUCLEIC ACID SPLICING” (REMIX THERAPEUTICS INC., priority 2021, published 2025).
Like-named read-outs stand apart in the source and are kept apart here.

What was measured:
Type in all cases: cell-based, human
HTT = assay: HiBiT protein abundance assay, HTT HiBiT K562 cell line; conditions: 24 hours, top dose 10 μM
Procedure, shortened: (§1)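 Tagged-protein abundance measured by split-NanoBiT luminescence after lysis, following 24 h compound exposure (37° C; 10 μM top, 3-fold, 10 points; DMSO ≤0.25%) of HiBiT knock-in K562 cells. Percent response vs DMSO and unmodified-cell controls; 4-parameter logistic interpolation at 50% gave IC50.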

MYB = assay: HiBiT protein abundance assay, MYB HiBiT K562 cell line; conditions: 24 hours, top dose 10 μM
Procedure, shortened: as §1

MYB mRNA = assay: RT-qPCR splicing assay, MYB canonical junction (CJ) and alternative junction (AJ) mRNA; conditions: Homo sapiens; for AC50: increase in MYB alternative junction (AJ) mRNA, read-out: MYB AJ AC50
Procedure, shortened: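 Splicing switches were read by TaqMan RT-qPCR on lysates, quantifying exon-exon junctions of the canonical and alternative-exon isoforms. Lysates came from K562 (GAPDH/GUSB reference) or A673 (PPIA reference) cells exposed 24 h to compound in 11 threefold steps from 10 uM, with DMSO ≤0.25%.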

[1] = HiBiT K562 cell line, read-out: Effect on protein abundance, HTT (IC50 category)
[2] = HiBiT K562 cell line, read-out: Effect on protein abundance, MYB (IC50 category)
[3] = canonical junction qPCR panel, Table 5, read-out: MYB (decrease in CJ mRNA levels, IC50)
[4] = decrease in MYB canonical junction (CJ) mRNA, RT-qPCR, read-out: MYB CJ IC50
[5] = HiBiT lytic detection, modified K562 cells, read-out: Effect on protein abundance, HTT (IC50)
[6] = HiBiT lytic detection, modified K562 cells, read-out: Effect on protein abundance, MYB (IC50)
[7] = Table 5 panel, canonical junction qPCR, compound concentration having 50% response in CJ decrease, read-out: MYB IC50 (decrease in CJ mRNA levels)

| IC50 (HTT; [1]) [nM] | IC50 (MYB; [2]) [nM] | IC50 (MYB mRNA; [3]) [nM] | IC50 (MYB mRNA; [4]) [nM] | IC50 (HTT; [5]) [nM] | IC50 (MYB; [6]) [nM] | IC50 (MYB mRNA; [7]) [nM] | SMILES | AC50 (MYB mRNA; RT-qPCR) [nM] |
| --- | --- | --- | --- | --- | --- | --- | --- | --- |
| 100 to 1000 | 100 to 1000 | 100 to 1000 | 100 to 1000 | – | – | – | Cn1cc2cc(-c3ccc4c(=O)n(C5CCNCC5)ccc4n3)cc(F)c2n1 [Compound 1231] | 100 to 1000 |
| 100 to 1000 | 100 to 1000 | 100 to 1000 | 100 to 1000 | – | – | – | Cc1cn2cc(-c3ccc4c(=O)n(C5CCNCC5)ccc4n3)cc(C#N)c2n1 [Compound 1297] | 100 to 1000 |
| – | – | 100 to 1000 | 100 to 1000 | 100 to 1000 | 100 to 1000 | – | Cn1cc2cc(-c3ccc4c(=O)n(C5CCNC6(CC6)C5)ncc4n3)c(O)cc2n1 (centres unmarked) [Compound 1306] | 100 to 1000 |
| – | – | 100 to 1000 | 100 to 1000 | < 100 | 100 to 1000 | – | CCN1CCC(n2ncc3nc(-c4cc(C)c5nc(C)cn5n4)ccc3c2=O)CC1 [Compound 1308] | 100 to 1000 |
| 100 to 1000 | < 100 | – | < 100 | – | – | 100 to 1000 | Cn1cc2cc(-c3ncc4c(=O)n(C5CCNCC5)ccc4n3)c(O)cc2n1 [Compound 1211] | 100 to 1000 |
| > 10000 | > 10000 | – | > 10000 | – | – | > 10000 | CN1CCC(Nc2ccc3c(=O)n(-c4ccc5cn(C)nc5c4)cnc3c2)CC1 [Compound 203] | > 10000 |
| > 10000 | 1000 to 10000 | – | 1000 to 10000 | – | – | 1000 to 10000 | Cc1cn2cc(-c3cc4ccn(C5CCNC5)c(=O)c4cn3)cc(C#N)c2n1 (centres unmarked) [Compound 1214] | 1000 to 10000 |
| > 10000 | 1000 to 10000 | 1000 to 10000 | > 10000 | – | – | – | Cc1c(O)c(-c2ncc3c(=O)n([C@@H]4C[C@H]5C[C@@H]4CN5)ccc3n2)cc2cn(C)nc12 [Compound 1445, 6-[(1R,4R,5R)-2-azabicyclo[2.2.1]heptan-5-yl]-2(6-hydroxy-2,7-dimethyl-indazol-5-yl)pyrido[4,3-d]pyrimidin-5-one] | 1000 to 10000 |
| 1000 to 10000 | < 100 | 100 to 1000 | 100 to 1000 | – | – | – | Cc1c(O)c(-c2ncc3c(=O)n(C45CCC(N)(CC4)C5)ccc3n2)cc2cn(C)nc12 [Compound 1428] | 100 to 1000 |
| 1000 to 10000 | 100 to 1000 | 100 to 1000 | 100 to 1000 | – | – | – | Cc1cn2nc(-c3ccc4c(=O)n([C@@H]5CCNC5)ccc4n3)cc(C)c2n1 [Compound 1438, 2-(2,8-dimethylimidazo[1,2-b]pyridazin-6-yl)-6-[(3R)-pyrrolidin-3-yl]-1,6-naphthyridin-5-one] | 100 to 1000 |
| 100 to 1000 | 100 to 1000 | < 100 | 100 to 1000 | – | – | – | Cn1cc2cc(-c3ccc4c(=O)n([C@H]5CCNC5)ccc4n3)c(O)c(F)c2n1 [Compound 1451, 2-(7-fluoro-6-hydroxy-2-methyl-indazol-5-yl)-6-[(3S)-pyrrolidin-3-yl]-1,6-naphthyridin-5-one] | < 100 |
| < 100 | < 100 | < 100 | < 100 | – | – | – | Cn1cc2cc(-c3ccc4c(=O)n(C5CCNC6(CC6)C5)ccc4n3)c(O)cc2n1 (centres unmarked) [Compound 1242] | < 100 |
| < 100 | < 100 | < 100 | < 100 | – | – | – | Cc1cn2cc(-c3ccc4c(=O)n(C5CCNCC5)ccc4n3)cc(C)c2n1 [Compound 1241, 2-(2,8-dimethylimidazo[1,2-a]pyridin-6-yl)-6-(piperidin-4-yl)-1,6-naphthyridin-5(6H)-one] | < 100 |
| 100 to 1000 | 100 to 1000 | 100 to 1000 | 100 to 1000 | – | – | – | Cc1c(O)c(-c2ncc3c(=O)n([C@@H]4CCN[C@H](C)C4)ccc3n2)cc2cn(C)nc12 [Compound 1434, 2-(6-hydroxy-2,7-dimethyl-indazol-5-yl)-6-(2-methyl-4-piperidyl)pyrido[4,3-d]pyrimidin-5-one] | 100 to 1000 |
| 100 to 1000 | 100 to 1000 | 100 to 1000 | 100 to 1000 | – | – | – | Cc1cn2cc(-c3ncc4c(=O)n([C@@H]5CCNC6(CC6)C5)ccc4n3)cc(F)c2n1 [Compound 1457, 6-[(7R)-4-azaspiro[2.5]octan-7-yl]-2-(8-fluoro-2-methyl-imidazo[1,2-a]pyridin-6-yl)pyrido[4,3-d]pyrimidin-5-one] | 100 to 1000 |
| 100 to 1000 | 100 to 1000 | 100 to 1000 | 100 to 1000 | – | – | – | Cc1c(O)c(-c2ncc3c(=O)n(C4C[C@@H](C)N[C@H](C)C4)ccc3n2)cc2cn(C)nc12 (stereo partly drawn) [Compound 1454, 6-[(2R,6R)-2,6-dimethyl-4-piperidyl]-2-(6-hydroxy-2,7-dimethyl-indazol-5-yl)pyrido[4,3-d]pyrimidin-5-one] | 100 to 1000 |
| < 100 | < 100 | – | 100 to 1000 | – | – | < 100 | Cn1cc2cc(-c3ncc4c(=O)n(C5CCNCC5)ccc4n3)cc(F)c2n1 [Compound 1212, 2-(7-fluoro-2-methyl-2H-indazol-5-yl)-6-(piperidin-4-yl)pyrido[4,3-d]pyrimidin-5(6H)-one] | < 100 |
| > 10000 | < 100 | – | 100 to 1000 | – | – | 100 to 1000 | Cc1c(O)c(-c2ncc3c(=O)n(C4CCNC4)ccc3n2)cc2cn(C)nc12 (centres unmarked) [Compound 1222] | 100 to 1000 |
| 100 to 1000 | 100 to 1000 | < 100 | < 100 | – | – | – | Cn1cc2cc(-c3ccc4c(=O)n([C@@H]5CCNC6(CC6)C5)ccc4n3)c(O)cc2n1 [Compound 1246] | < 100 |
| > 10000 | 100 to 1000 | – | 1000 to 10000 | – | – | 100 to 1000 | Cc1cn2cc(-c3ncc4c(=O)n([C@@H]5CCNC5)ccc4n3)cc(F)c2n1 [Compound 1228] | 100 to 1000 |
| 100 to 1000 | 100 to 1000 | – | 100 to 1000 | – | – | 100 to 1000 | Cc1cn2cc(-c3cc4ccn(C5CCNCC5)c(=O)c4cn3)nc(C)c2n1 [Compound 1205, 6-(2,8-dimethylimidazo[1,2-a]pyrazin-6-yl)-2-(piperidin-4-yl)-2,7-naphthyridin-1(2H)-one] | 100 to 1000 |
| > 10000 | 1000 to 10000 | 100 to 1000 | 1000 to 10000 | – | – | – | Cc1cn2cc(-c3ccc4c(=O)n(C5CCNC5)ccc4n3)cc(F)c2n1 (centres unmarked) [Compound 1299] | 100 to 1000 |
| 100 to 1000 | 100 to 1000 | – | 100 to 1000 | – | – | 100 to 1000 | Cc1cc(-c2cc3ccn(C4CCNCC4)c(=O)c3cn2)cc2cn(C)nc12 [Compound 1204, 6-(2,7-dimethyl-2H-indazol-5-yl)-2-(piperidin-4-yl)-2,7-naphthyridin-1(2H)-one] | 100 to 1000 |
| 100 to 1000 | < 100 | < 100 | < 100 | – | – | – | Cc1c(O)c(-c2ncc3c(=O)n(C4C[C@H](C)N[C@@H](C)C4)ccc3n2)cc2cn(C)nc12 (stereo partly drawn) [Compound 1455, 6-[(2S,6S)-2,6-dimethyl-4-piperidyl]-2-(6-hydroxy-2,7-dimethyl-indazol-5-yl)pyrido[4,3-d]pyrimidin-5-one] | < 100 |
| 1000 to 10000 | 100 to 1000 | – | 100 to 1000 | – | – | 1000 to 10000 | Cc1cn2nc(-c3ccc4c(c3F)CCN(C3CCNCC3)C4=O)cc(C)c2n1 [Compound 188] | 1000 to 10000 |
